In patent US20250215029A1 (Recludix Pharma, Inc., priority 2022, published 2025):

How the values were obtained:
[1] = target: T1, Recombinant STAT3 protein (STAT3 (G127-I722)) (Homo sapiens, UniProt P40763); assay: STAT3 Fluorescence Polarization (FP) Assay; format: binding; conditions: STAT3 25 nM, probe 5-FAM-GpYLPQTV-NH2 2 nM, 45-minute incubation; read-out: STAT3 (FP assay IC50)
T1 construct: Recombinant STAT3 protein (STAT3 (G127-I722))
Summary of the method: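 In this competition FP format, STAT3 residues G127-I722 (25 nM) and 2 nM 5-FAM-GpYLPQTV-NH2 met test compounds for 45 min at room temperature. IC50 values result from fitting mP signal against log concentration by nonlinear regression.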

[2] = target: T2, Recombinant STAT6 protein (STAT6 (W123-T658)) (Homo sapiens, UniProt P42226); assay: STAT6 Fluorescence Polarization (FP) Assay; format: binding; conditions: STAT6 250 nM, probe 5-FAM-Ap[…]-NH2 2 nM, 45-minute incubation; read-out: STAT6 (FP assay IC50)
T2 construct: Recombinant STAT6 protein (STAT6 (W123-T658))
T2 sequence (P42226 123-658): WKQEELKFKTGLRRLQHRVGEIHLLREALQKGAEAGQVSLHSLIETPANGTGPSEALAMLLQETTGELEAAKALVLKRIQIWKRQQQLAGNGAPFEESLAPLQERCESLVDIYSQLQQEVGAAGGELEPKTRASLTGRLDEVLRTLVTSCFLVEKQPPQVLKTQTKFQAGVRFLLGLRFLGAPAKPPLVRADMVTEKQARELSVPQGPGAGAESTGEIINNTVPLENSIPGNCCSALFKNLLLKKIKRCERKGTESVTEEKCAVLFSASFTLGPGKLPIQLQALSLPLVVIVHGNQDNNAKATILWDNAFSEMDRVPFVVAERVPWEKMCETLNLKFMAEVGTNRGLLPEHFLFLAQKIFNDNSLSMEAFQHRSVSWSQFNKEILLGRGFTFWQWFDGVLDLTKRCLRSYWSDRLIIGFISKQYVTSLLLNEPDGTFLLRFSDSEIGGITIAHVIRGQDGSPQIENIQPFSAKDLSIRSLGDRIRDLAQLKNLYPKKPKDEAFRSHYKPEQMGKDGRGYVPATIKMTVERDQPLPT
Summary of the method: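 Recombinant STAT6 (W123-T658) at 250 nM mixed with 2 nM 5-FAM phosphotyrosine peptide probe in HEPES pH 7.4 buffer with DTT, 1% DMSO final, added to serially diluted compounds. FP (mP) read after 45 min at room temperature; IC50 by nonlinear regression vs log concentration.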

T1 sequence (P40763 127-722): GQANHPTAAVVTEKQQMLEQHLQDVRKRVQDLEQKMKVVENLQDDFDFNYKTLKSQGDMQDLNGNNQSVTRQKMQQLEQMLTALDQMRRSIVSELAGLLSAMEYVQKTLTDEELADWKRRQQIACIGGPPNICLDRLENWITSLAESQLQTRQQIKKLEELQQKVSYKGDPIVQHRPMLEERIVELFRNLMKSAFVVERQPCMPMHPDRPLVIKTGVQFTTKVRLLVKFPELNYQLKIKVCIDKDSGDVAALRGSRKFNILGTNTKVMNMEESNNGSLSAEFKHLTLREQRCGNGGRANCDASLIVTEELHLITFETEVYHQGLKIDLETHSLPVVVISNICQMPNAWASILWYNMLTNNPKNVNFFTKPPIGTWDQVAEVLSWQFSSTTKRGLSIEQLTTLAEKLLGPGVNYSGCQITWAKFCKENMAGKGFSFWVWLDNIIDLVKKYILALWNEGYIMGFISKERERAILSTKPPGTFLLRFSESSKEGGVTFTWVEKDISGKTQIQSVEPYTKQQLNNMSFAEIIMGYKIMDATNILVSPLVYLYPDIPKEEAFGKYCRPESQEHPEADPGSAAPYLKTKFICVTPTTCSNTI

Structure (SMILES): O=C(N[C@H]1CCCC[C@H]2CC[C@@H](C(=O)N3CC[C@@H](c4ccccc4)C3)N2C1=O)c1cc2cc(C(F)(F)P(=O)(O)O)ccc2s1 [Compound 82, (difluoro(2-(((3S,6S,10aS)-5-oxo-3-((S)-3-phenylpyrrolidine-1-carbonyl)decahydropyrrolo [1,2-a]azocin-6-yl)carbamoyl)benzo[b]thiophen-5-yl)methyl) phosphonic acid]
- IC50 [1]: 100 to 1000 nM
- IC50 [2]: ≤ 300 nM

Structure (SMILES): C[C@]1(NC(=O)c2cc3cc(C(F)(F)P(=O)(O)O)ccc3s2)CCCC[C@H]2CC[C@@H](C(=O)N3CC(c4ccccn4)C3)N2C1=O [Compound 85, (difluoro(2-(((3S,6S,10aS)-6-methyl-5-oxo-3-(3-(pyridin-2-yl)azetidine-1-carbonyl)decahydropyrrolo [1,2-a]azocin-6-yl)carbamoyl)benzo[b]thiophen-5-yl)methyl) phosphonic acid]
- IC50 [1]: < 100 nM
- IC50 [2]: 3000 to 30000 nM

Structure (SMILES): CN(C)S(=O)(=O)N1CCN(C(=O)[C@@H]2CC[C@@H]3CCCC[C@H](NC(=O)c4cc5cc(C(F)(F)P(=O)(O)O)ccc5s4)C(=O)N32)CC1 [Compound 87, ((2-(((3S,6S,10aS)-3-(4-(N,N-dimethylsulfamoyl)piperazine-1-carbonyl)-5-oxodecahydropyrrolo [1,2-a]azocin-6-yl)carbamoyl)benzo[b]thiophen-5-yl)difluoromethyl) phosphonic acid]
- IC50 [1]: 100 to 1000 nM
- IC50 [2]: 300 to 3000 nM

Structure (SMILES): O=C(NC1CCCC[C@H]2CC[C@@H](C(=O)N3CC(c4ccccc4)CC34CC4)N2C1=O)c1cc2cc(C(F)(F)P(=O)(O)O)ccc2s1 (stereo partly drawn) [Compound 89, (difluoro(2-(((3S,10aS)-5-oxo-3-(6-phenyl-4-azaspiro[2.4]heptane-4-carbonyl)decahydropyrrolo [1,2-a]azocin-6-yl)carbamoyl)benzo[b]thiophen-5-yl)methyl) phosphonic acid]
- IC50 [1]: 1000 to 10000 nM
- IC50 [2]: ≤ 300 nM

Structure (SMILES): O=C(N[C@H]1CCCC[C@H]2CC[C@@H](C(=O)N3CC(C(=O)N4CCOCC4)C3)N2C1=O)c1cc2cc(C(F)(F)P(=O)(O)O)ccc2s1 [Compound 93, (difluoro(2-(((3S,6S,10aS)-3-(3-(morpholine-4-carbonyl)azetidine-1-carbonyl)-5-oxodecahydropyrrolo [1,2-a]azocin-6-yl)carbamoyl)benzo[b]thiophen-5-yl)methyl) phosphonic acid]
- IC50 [1]: 100 to 1000 nM
- IC50 [2]: 3000 to 30000 nM

Structure (SMILES): O=C(N[C@H]1CCC[C@H]2CC[C@@H](C(=O)N3CC(C(=O)N4CCOCC4)C3)N2C1=O)c1cc2cc(C(F)(F)P(=O)(O)O)ccc2s1 [Compound 94, (difluoro(2-(((3S,6S,9aS)-3-(3-(morpholine-4-carbonyl)azetidine-1-carbonyl)-5-oxooctahydro-1H-pyrrolo[1,2-a]azepin-6-yl)carbamoyl)benzo[b]thiophen-5-yl)methyl) phosphonic acid]
- IC50 [1]: 100 to 1000 nM
- IC50 [2]: 3000 to 30000 nM

Structure (SMILES): O=C(N[C@H]1C=CC[C@H]2CC[C@@H](C(=O)Nc3ccc(-c4ccccc4)cc3)N2C1=O)c1cc2cc(C(F)(F)P(=O)(O)O)ccc2s1 [Compound 97, ((2-(((3S,6S,9aR)-3-([1,1′-biphenyl]-4-ylcarbamoyl)-5-oxo-2,3,5,6,9,9a-hexahydro-1H-pyrrolo[1,2-a]azepin-6-yl)carbamoyl)benzo[b]thiophen-5-yl)difluoromethyl) phosphonic acid]
- IC50 [1]: 100 to 1000 nM
- IC50 [2]: 300 to 3000 nM

Structure (SMILES): O=C(N[C@H]1CCCC[C@H]2CC[C@@H](C(=O)NC(CO)Cc3ccccc3)N2C1=O)c1cc2cc(C(F)(F)P(=O)(O)O)ccc2s1 (stereo partly drawn) [Compound 98, (difluoro(2-(((3S,6S,10aS)-3-((1-hydroxy-3-phenylpropan-2-yl)carbamoyl)-5-oxodecahydropyrrolo [1,2-a]azocin-6-yl)carbamoyl)benzo[b]thiophen-5-yl)methyl) phosphonic acid]
- IC50 [1]: 100 to 1000 nM
- IC50 [2]: 3000 to 30000 nM

Structure (SMILES): C[C@@H]1C[C@H](NC(=O)c2cc3cc(C(F)(F)P(=O)(O)O)ccc3s2)C(=O)N2[C@H](CC[C@H]2C(=O)N2CC[C@@H](c3ccccc3)C2)C[C@H]1O [Compound 100, (difluoro(2-(((3S,6S,8R,9R, 10aR)-9-hydroxy-8-methyl-5-oxo-3-((S)-3-phenylpyrrolidine-1-carbonyl)decahydropyrrolo [1,2-a]azocin-6-yl)carbamoyl)benzo[b]thiophen-5-yl)methyl) phosphonic acid]
- IC50 [1]: 1000 to 10000 nM
- IC50 [2]: ≤ 300 nM

Structure (SMILES): CC1CCC[C@H](NC(=O)c2cc3cc(C(F)(F)P(=O)(O)O)ccc3s2)C(=O)N2[C@@H]1CC[C@H]2C(=O)N1CC(c2cccnc2)C1 (stereo partly drawn) [Compound 103, (difluoro(2-(((3S,6S,10aR)-10-methyl-5-oxo-3-(3-(pyridin-3-yl)azetidine-1-carbonyl)decahydropyrrolo [1,2-a]azocin-6-yl)carbamoyl)benzo[b]thiophen-5-yl)methyl) phosphonic acid]
- IC50 [1]: < 100 nM
- IC50 [2]: 3000 to 30000 nM

Structure (SMILES): O=C(N[C@H]1CCC[C@H]2CC[C@@H](C(=O)N3CC(c4ccccn4)C3)N2C1=O)c1cc2cc(C(F)(F)P(=O)(O)O)ccc2s1 [Compound 108, (difluoro(2-(((3S,6S,9aS)-5-oxo-3-(3-(pyridin-2-yl)azetidine-1-carbonyl)octahydro-1H-pyrrolo[1,2-a]azepin-6-yl)carbamoyl)benzo[b]thiophen-5-yl)methyl) phosphonic acid]
- IC50 [1]: < 100 nM
- IC50 [2]: 300 to 3000 nM

Structure (SMILES): CN(C(=O)[C@@H]1CC[C@@H]2CCC[C@H](NC(=O)c3cc4cc(C(F)(F)P(=O)(O)O)ccc4s3)C(=O)N21)c1ccccc1 [Compound 111, (Difluoro(2-(((3S,6S,9aS)-3-(methyl(phenyl)carbamoyl)-5-oxooctahydro-1H-pyrrolo[1,2-a]azepin-6-yl)carbamoyl)benzo[b]thiophen-5-yl)methyl)phosphonic acid]
- IC50 [1]: 1000 to 10000 nM
- IC50 [2]: 300 to 3000 nM

Structure (SMILES): O=C(N[C@H]1CCCC[C@H]2CC[C@@H](C(=O)N3CC(N4CCOCC4)C3)N2C1=O)c1cc2cc(C(F)(F)P(=O)(O)O)ccc2s1 [Compound 113, (difluoro(2-(((3S,6S, 10aS)-3-(3-morpho-linoazetidine-1-carbonyl)-5-oxodecahydropyrrolo[1,2-a]azocin-6-yl)carbamoyl)benzo[b]thiophen-5-yl)methyl)ph osphonic acid]
- IC50 [1]: 100 to 1000 nM
- IC50 [2]: 3000 to 30000 nM

Structure (SMILES): O=C(N[C@H]1CCC2(CC2)C[C@H]2CC[C@@H](C(=O)N3CC(C(=O)N4CCOCC4)C3)N2C1=O)c1cc2cc(C(F)(F)P(=O)(O)O)ccc2s1 [Compound 114, (difluoro(2-(((3′S,6′S, 10aR)-3′-(3-(morpholine-4-carbonyl)azetidine-1-carbonyl)-5′-oxooctahydro-1′H-spiro [cyclopropane-1,9′-pyrrolo[1,2-a]azocin]-6′-yl)carbamoyl)benzo[b]thiophen-5-yl)methyl) phosphonic acid]
- IC50 [1]: < 100 nM
- IC50 [2]: 3000 to 30000 nM

Structure (SMILES): O=C(N[C@H]1CC2(CC[C@H]3CC[C@@H](C(=O)N4CC(C(=O)N5CCOCC5)C4)N3C1=O)CC2)c1cc2cc(C(F)(F)P(=O)(O)O)ccc2s1 [Compound 115, (difluoro(2-(((3′S,6′S, 10a′S)-3′-(3-(morpholine-4-carbonyl)azetidine-1-carbonyl)-5′-oxooctahydro-5′H-spiro [cyclopropane-1,8′-pyrrolo[1,2-a]azocin]-6′-yl)carbamoyl)benzo[b]thiophen-5-yl)methyl) phosphonic acid]
- IC50 [1]: < 100 nM
- IC50 [2]: 3000 to 30000 nM

Structure (SMILES): CC(=O)N1C[C@H](NC(=O)[C@@H]2CC[C@@H]3CCCC[C@H](NC(=O)c4cc5cc(C(F)(F)P(=O)(O)O)ccc5s4)C(=O)N32)[C@@H](O)C1 [Compound 116, ((2-(((3S, 6S,10aS)-3-(((3S,4S)-1-acetyl-4-hydroxypyrrolidin-3-yl)carbamoyl)-5-oxodecahydro-pyrrolo [1,2-a]azocin-6-yl)carbamoyl)benzo[b]thiophen-5-yl)difluoromethyl) phosphonic acid]
- IC50 [1]: 100 to 1000 nM
- IC50 [2]: 300 to 3000 nM

Structure (SMILES): O=C(N[C@H]1CCCC[C@H]2CC[C@@H](C(=O)N3CC(c4cccnc4)C3)N2C1=O)c1cc2cc(C(F)(F)P(=O)(O)O)ccc2s1 [Compound 117, (difluoro(2-(((3S,6S,10aS)-5-oxo-3-(3-(pyridin-3-yl)azetidine-1-carbonyl)decahydropyrrolo [1,2-a]azocin-6-yl)carbamoyl)benzo[b]thiophen-5-yl)methyl) phosphonic acid]
- IC50 [1]: < 100 nM
- IC50 [2]: 3000 to 30000 nM
